Test results as given in paper PMC9552234.

Test: amide bond formation (macrolactamization of free amino acid tripeptides containing anthranilic acid), HATU (1.2 equiv), Et3N (1.2 equiv), high dilution
Conditions: 10-membered ring, CH2Cl2, 3.0 mM, 0.0 °C, 2 steps

## CC(=O)N1c2ccccc2[C@@H]2C[C@H]3C(=O)N[C@@H](C(C)C)C(=O)Nc4ccccc4C(=O)N3[C@@H]21 (mixture of isomers) [exo-47 -> exo-48 (1 step, from exo/endo mixture)]
From CC(=O)N1c2ccccc2[C@@H]2C[C@@H](C(=O)N[C@H](C(=O)Nc3ccccc3C(=O)O)C(C)C)N[C@@H]21, 1.0 h
  ring closure, yield over several steps: 29%

## CC(=O)N1c2ccccc2[C@H]2C[C@H]3C(=O)N[C@@H](C(C)C)C(=O)Nc4ccccc4C(=O)N3[C@H]21 (mixture of isomers) [endo-47 -> endo-48 (1 step, from exo/endo mixture)]
From CC(=O)N1c2ccccc2[C@H]2C[C@@H](C(=O)N[C@H](C(=O)Nc3ccccc3C(=O)O)C(C)C)N[C@H]21, 1.0 h
  ring closure, yield over several steps: 19%

## C=CC(C)(C)[C@]12C[C@H]3C(=O)N[C@@H](C(C)C)C(=O)Nc4ccccc4C(=O)N3[C@H]1N(C(C)=O)c1ccccc12 [endo-75 -> L-Trp-endo-11 (incl. Boc removal)]
From C=CC(C)(C)[C@]12C[C@@H](C(=O)N[C@H](C(=O)Nc3ccccc3C(=O)O)C(C)C)N[C@H]1N(C(C)=O)c1ccccc12, 2.0 h
  ring closure, yield over several steps: 87%

## C=CC(C)(C)[C@@]12C[C@H]3C(=O)N[C@@H](C(C)C)C(=O)Nc4ccccc4C(=O)N3[C@@H]1N(C(C)=O)c1ccccc12 [exo-75 -> L-Trp-exo-11 (incl. Boc removal)]
From C=CC(C)(C)[C@@]12C[C@@H](C(=O)N[C@H](C(=O)Nc3ccccc3C(=O)O)C(C)C)N[C@@H]1N(C(C)=O)c1ccccc12, 1.5 h
  ring closure, yield over several steps: 97%

## CC(=O)n1cc(C[C@H]2NC(=O)c3ccccc3NC(=O)[C@H](C(C)C)NC2=O)c2ccccc21 [H-D-Trp(1-Ac)-Val-Abz(2)-OH]
From CC(=O)n1cc(C[C@@H](N)C(=O)N[C@H](C(=O)Nc2ccccc2C(=O)O)C(C)C)c2ccccc21, 1.17 h
  ring closure, yield over several steps: 53%

## C=CC(C)(C)[C@@]12C[C@H]3C(=O)N[C@@H](C(C)C)C(=O)Nc4ccccc4C(=O)N3[C@@H]1N(C(C)=O)c1ccccc12 [exo-69 -> L-Trp-exo-11 (slow addition; trace)]
From C=CC(C)(C)[C@@]12C[C@@H](C(=O)O)N(C(=O)c3ccccc3NC(=O)[C@@H](N)C(C)C)[C@@H]1N(C(C)=O)c1ccccc12
  ring closure, yield over several steps: 0%

## CC(=O)n1cc(C[C@@H]2NC(=O)c3ccccc3NC(=O)[C@H](C(C)C)NC2=O)c2ccccc21 [H-Trp(1-Ac)-Val-Abz(2)-OH]
From CC(=O)n1cc(C[C@H](N)C(=O)N[C@H](C(=O)Nc2ccccc2C(=O)O)C(C)C)c2ccccc21
  ring closure, yield over several steps: 0%

## CC(C)[C@@H]1NC(=O)[C@@H](Cc2cn(C(=O)OC(C)(C)C)c3ccccc23)NC(=O)c2ccccc2NC1=O [H-D-Trp(1-Boc)-Val-Abz(2)-OH]
From CC(C)[C@H](NC(=O)[C@H](N)Cc1cn(C(=O)OC(C)(C)C)c2ccccc12)C(=O)Nc1ccccc1C(=O)O, 0.83 h
  ring closure, yield over several steps: 56%

## C=CC(C)(C)[C@]12C[C@H]3C(=O)N[C@@H](C(C)C)C(=O)Nc4ccccc4C(=O)N3[C@H]1N(C(C)=O)c1ccccc12 [endo-69 -> L-Trp-endo-11 (slow addition; decomposition)]
From C=CC(C)(C)[C@]12C[C@@H](C(=O)O)N(C(=O)c3ccccc3NC(=O)[C@@H](N)C(C)C)[C@H]1N(C(C)=O)c1ccccc12
  ring closure, yield over several steps: 0%
